Measured values as given in patent publication US20020051978A1, “Methods and compositions for the identification, assessment, prevention and therapy of human cancers” (priority 2000, published 2002).
Where two headings read alike, the source gives them in different places.

Columns and labels:
[1] = tested on: 60 cancer cell lines (NCI 60 cancer cell line series); assay: NCI-DTP in vitro cancer screen, sulforhodamine B (SRB) growth inhibition, 48 hour exposure; assay type: cell-based, human; set-up: key to sensitivity class Ovarian OVCAR-8 CL6005 / sensitivity class Ovarian SK-OV-3 CL6011 / sensitivity class Prostate DU-145 CL11003 / sensitivity class NSCLC NCI-H522 CL1003 / sensitivity class Ovarian IGROV1 CL6010 / sensitivity class Ovarian OVCAR-4 CL6002 / sensitivity class Prostate PC-3(I) CL11001 / sensitivity class Renal A498 CL9013 / sensitivity class Renal SN12C CL9008: sensitivity class: 1 = Low, 2 = Medium, 3 = High
How it was run: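 Values come from the NCI-DTP screen database: -log GI50, the concentration giving 50% growth inhibition, derived from SRB cell-mass dose-response curves. Each line seeded at its own density, treated day 1 at five ten-fold-spaced doses in duplicate wells, stained after 48 h.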

[2] = tested on: 60 cancer cell lines (NCI 60 cancer cell line series); details: cited from earlier work

O=c1[nH]cc(F)c(=O)[nH]1 [5-Fluorouracil]
classification of cell line as Low(1), Medium(2) or High(3) sensitivity to compound ([1]; Breast BT-549 (CL5013)): 1
classification of cell line as Low(1), Medium(2) or High(3) sensitivity to compound ([1]; Breast HS-578T CL5006): 1
classification of cell line as Low(1), Medium(2) or High(3) sensitivity to compound ([1]; Breast MCF7(I) (CL5001)): 3
classification of cell line as Low(1), Medium(2) or High(3) sensitivity to compound ([1]; Breast MCF7/ADRr (CL5002)): 2
classification of cell line as Low(1), Medium(2) or High(3) sensitivity to compound ([1]; Breast MDA-MB-231 CL5005): 1
classification of cell line as Low(1), Medium(2) or High(3) sensitivity to compound ([1]; Breast MDA-MB-435 (CL5011)): 2
classification of cell line as Low(1), Medium(2) or High(3) sensitivity to compound ([1]; Breast MDA-N CL5012): 2
classification of cell line as Low(1), Medium(2) or High(3) sensitivity to compound ([1]; Breast T-47D (CL5014)): 2
classification of cell line as Low(1), Medium(2) or High(3) sensitivity to compound ([1]; CNS SF-268 CL12014): 2
classification of cell line as Low(1), Medium(2) or High(3) sensitivity to compound ([1]; CNS SF-295 CL12015): 2
classification of cell line as Low(1), Medium(2) or High(3) sensitivity to compound ([1]; CNS SF-539 CL12016): 3
classification of cell line as Low(1), Medium(2) or High(3) sensitivity to compound ([1]; CNS SNB-19 (CL12002)): 1
classification of cell line as Low(1), Medium(2) or High(3) sensitivity to compound ([1]; CNS SNB-75(I) CL12005): 1
classification of cell line as Low(1), Medium(2) or High(3) sensitivity to compound ([1]; CNS U251(I) CL12009): 2
classification of cell line as Low(1), Medium(2) or High(3) sensitivity to compound ([1]; Colon COLO-250 CL4010): 2
classification of cell line as Low(1), Medium(2) or High(3) sensitivity to compound ([1]; Colon HCC-2998 (CL4002)): 3
classification of cell line as Low(1), Medium(2) or High(3) sensitivity to compound ([1]; Colon HCT-15 CL4015): 2
classification of cell line as Low(1), Medium(2) or High(3) sensitivity to compound ([1]; Colon HCT-116 (CL4003)): 3
classification of cell line as Low(1), Medium(2) or High(3) sensitivity to compound ([1]; Colon HT29(I) CL4001): 2
classification of cell line as Low(1), Medium(2) or High(3) sensitivity to compound ([1]; Colon KM12 (CL4017)): 2
classification of cell line as Low(1), Medium(2) or High(3) sensitivity to compound ([1]; Colon SW-620 (CL4009)): 2
classification of cell line as Low(1), Medium(2) or High(3) sensitivity to compound ([1]; Leukemia CCRF-CEM(I) (CL7003)): 2
classification of cell line as Low(1), Medium(2) or High(3) sensitivity to compound ([1]; Leukemia HL-60(I) (CL7008)): 2
classification of cell line as Low(1), Medium(2) or High(3) sensitivity to compound ([1]; Leukemia K562(I) CL7005): 2
classification of cell line as Low(1), Medium(2) or High(3) sensitivity to compound ([1]; Leukemia MOLT-4 (CL7006)): 2
classification of cell line as Low(1), Medium(2) or High(3) sensitivity to compound ([1]; Leukemia RPMI-8226(I) (CL7010)): 3
classification of cell line as Low(1), Medium(2) or High(3) sensitivity to compound ([1]; Leukemia SR CL7019): 2
classification of cell line as Low(1), Medium(2) or High(3) sensitivity to compound ([1]; Melanoma LOX IMVI CL10001): 2
classification of cell line as Low(1), Medium(2) or High(3) sensitivity to compound ([1]; Melanoma M14 (CL10014)): 2
classification of cell line as Low(1), Medium(2) or High(3) sensitivity to compound ([1]; Melanoma MALME-3M CL10002): 2
sensitivity class NSCLC NCI-H23(I) CL1001 ([1]; cell line NSCLC NCI-H23(I), CL1001): 2
sensitivity class NSCLC NCI-H332M CL1017 ([1]; cell line NSCLC NCI-H332M, CL1017): 2
sensitivity class NSCLC NCI-H460 CL1021 ([1]; cell line NSCLC NCI-H460, CL1021): 3
sensitivity class NSCLC NCI-H522 CL1003 ([1]; cell line NSCLC NCI-H522, CL1003): 2
sensitivity class Ovarian IGROV1 CL6010 ([1]; cell line Ovarian IGROV1, CL6010): 2
sensitivity class Ovarian OVCAR-3 CL6001 ([1]; cell line Ovarian OVCAR-3, CL6001): 2
sensitivity class Ovarian OVCAR-4 CL6002 ([1]; cell line Ovarian OVCAR-4, CL6002): 2
sensitivity class Ovarian OVCAR-5 CL6003 ([1]; cell line Ovarian OVCAR-5, CL6003): 1
sensitivity class Ovarian OVCAR-8 CL6005 ([1]; cell line Ovarian OVCAR-8, CL6005): 2
sensitivity class Ovarian SK-OV-3 CL6011 ([1]; cell line Ovarian SK-OV-3, CL6011): 1
sensitivity class Prostate DU-145 CL11003 ([1]; cell line Prostate DU-145, CL11003): 2
sensitivity class Prostate PC-3(I) CL11001 ([1]; cell line Prostate PC-3(I), CL11001): 2
sensitivity class Renal 786-O CL9018 ([1]; cell line Renal 786-O, CL9018): 2
sensitivity class Renal A498 CL9013 ([1]; cell line Renal A498, CL9013): 2
sensitivity class Renal ACHN CL9023 ([1]; cell line Renal ACHN, CL9023): 2
sensitivity class Renal CAKI-1 CL9015 ([1]; cell line Renal CAKI-1, CL9015): 3
sensitivity class Renal RXF-393 CL9016 ([1]; cell line Renal RXF-393, CL9016): 2
sensitivity class Renal SN12C CL9008 ([1]; cell line Renal SN12C, CL9008): 2
sensitivity class Renal TK10 CL9024 ([1]; cell line Renal TK10, CL9024): 1
sensitivity class Renal UO-31 CL9004 ([1]; cell line Renal UO-31, CL9004): 2
-Log (GI50) ([2]; Breast BT-549 (CL5013)): 4.0
-Log (GI50) ([2]; Breast HS-578T CL5006): 3.7
-Log (GI50) ([2]; Breast MCF7(I) (CL5001)): 5.7
-Log (GI50) ([2]; Breast MCF7/ADRr (CL5002)): 4.4
-Log (GI50) ([2]; Breast MDA-MB-231 CL5005): 3.4
-Log (GI50) ([2]; Breast MDA-MB-435 (CL5011)): 4.9
-Log (GI50) ([2]; Breast MDA-N CL5012): 5.0
-Log (GI50) ([2]; Breast T-47D (CL5014)): 4.2
-Log (GI50) ([2]; CNS SF-268 CL12014): 4.3
-Log (GI50) ([2]; CNS SF-295 CL12015): 4.3
-Log (GI50) ([2]; CNS SF-539 CL12016): 6.1
-Log (GI50) ([2]; CNS SNB-19 (CL12002)): 3.9
-Log (GI50) ([2]; CNS SNB-75(I) CL12005): 3.8
-Log (GI50) ([2]; CNS U251(I) CL12009): 4.3
-Log (GI50) ([2]; Colon COLO-250 CL4010): 5.2
-Log (GI50) ([2]; Colon HCC-2998 (CL4002)): 5.9
-Log (GI50) ([2]; Colon HCT-15 CL4015): 5.2
-Log (GI50) ([2]; Colon HCT-116 (CL4003)): 5.4
-Log (GI50) ([2]; Colon HT29(I) CL4001): 5.2
-Log (GI50) ([2]; Colon KM12 (CL4017)): 4.9
-Log (GI50) ([2]; Colon SW-620 (CL4009)): 4.6
-Log (GI50) ([2]; Leukemia CCRF-CEM(I) (CL7003)): 4.5
-Log (GI50) ([2]; Leukemia HL-60(I) (CL7008)): 4.9
-Log (GI50) ([2]; Leukemia K562(I) CL7005): 4.8
-Log (GI50) ([2]; Leukemia MOLT-4 (CL7006)): 4.9
-Log (GI50) ([2]; Leukemia RPMI-8226(I) (CL7010)): 5.3
-Log (GI50) ([2]; Leukemia SR CL7019): 5.2
-Log (GI50) ([2]; Melanoma LOX IMVI CL10001): 5.2
-Log (GI50) ([2]; Melanoma M14 (CL10014)): 4.3
-Log (GI50) ([2]; Melanoma MALME-3M CL10002): 4.6
-Log (GI50) ([2]; NCSLC NCI-H522 CL1003): 4.4
-Log (GI50) ([2]; NSCLC NCI-H23(I) CL1001): 5.0
-Log (GI50) ([2]; NSCLC NCI-H332M CL1017): 4.4
-Log (GI50) ([2]; NSCLC NCI-H460 CL1021): 5.9
-Log (GI50) ([2]; Ovarian IGROV1 CL6010): 4.8
-Log (GI50) ([2]; Ovarian OVCAR-3 CL6001): 4.4
-Log (GI50) ([2]; Ovarian OVCAR-4 CL6002): 4.1
-Log (GI50) ([2]; Ovarian OVCAR-5 CL6003): 3.8
-Log (GI50) ([2]; Ovarian OVCAR-8 CL6005): 4.8
-Log (GI50) ([2]; Ovarian SK-OV-3 CL6011): 3.8
-Log (GI50) ([2]; Prostate DU-145 CL11003): 5.1
-Log (GI50) ([2]; Prostate PC-3(I) CL11001): 4.3
-Log (GI50) ([2]; Renal 786-O CL9018): 4.9
-Log (GI50) ([2]; Renal A498 CL9013): 5.0
-Log (GI50) ([2]; Renal ACHN CL9023): 5.0
-Log (GI50) ([2]; Renal CAKI-1 CL9015): 5.3
-Log (GI50) ([2]; Renal RXF-393 CL9016): 4.2
-Log (GI50) ([2]; Renal SN12C CL9008): 4.5
-Log (GI50) ([2]; Renal TK10 CL9024): 3.6
-Log (GI50) ([2]; Renal UO-31 CL9004): 5.2
